Measured values: article PMC11899342, “Novel Triazeneindole Antibiotics: Synthesis and Hit-to-Lead Optimization” (International Journal of Molecular Sciences, 2025)

Tested on: MRSA clinical isolates
Test: Antibiotic susceptibility profile of MRSA clinical isolates (EUCAST breakpoints)
Type: cell-based, Staphylococcus aureus
Excerpt: Clinical MRSA isolates with multidrug resistance were obtained from the collection of the Research Institute of Antimicrobial Chemotherapy, Smolensk State Medical Academy.

For `CC(=O)O[C@H]1C[C@@]2(C)[C@@H](C[C@@H](O)[C@H]3[C@@]4(C)CC[C@@H](O)[C@@H](C)[C@@H]4CC[C@@]32C)/C1=C(\CCC=C(C)C)C(=O)O` [Fusidic acid], the Drug sensibility profile (MRSA strain 1) was “S”, the Drug sensibility profile (MRSA strain 2) was “S” and the Drug sensibility profile (MRSA strain 3) was “S”. For the same compound, the Drug sensibility profile (MRSA strain 4) was “S”, the Drug sensibility profile (MRSA strain 5) was “S” and the Drug sensibility profile (MRSA strain 6) was “S”. For the same compound, the Drug sensibility profile (MRSA strain 7) was “S”, the Drug sensibility profile (MRSA strain 8) was “S” and the Drug sensibility profile (MRSA strain 9) was “S”. For the same compound, the Drug sensibility profile (MRSA strain 10) was “S”, the Drug sensibility profile (MRSA strain 12) was “S” and the Drug sensibility profile (MRSA strain 13) was “S”. The Drug sensibility profile (MRSA strain 14) was “S”, the Drug sensibility profile (MRSA strain 15) was “S” and the Drug sensibility profile (MRSA strain 16) was “S”. The Drug sensibility profile (MRSA strain 17) was “R”, the Drug sensibility profile (MRSA strain 18) was “S” and the Drug sensibility profile (MRSA strain 21) was “S”. For the same compound, the Drug sensibility profile (MRSA strain 23) was “S”, the Drug sensibility profile (MRSA strain 24) was “S” and the Drug sensibility profile (MRSA strain 25) was “S”. For the same compound, the Drug sensibility profile (MRSA strain 26) was “S”, the Drug sensibility profile (MRSA strain 27) was “S” and the Drug sensibility profile (MRSA strain 28) was “S”. For the same compound, the Drug sensibility profile (MRSA strain 29) was “S”, the Drug sensibility profile (MRSA strain 30) was “S” and the Drug sensibility profile (MRSA strain 31) was “S”. The Drug sensibility profile (MRSA strain 34) was “S”, the Drug sensibility profile (MRSA strain 35) was “S” and the Drug sensibility profile (MRSA strain 36) was “S”. The Drug sensibility profile (MRSA strain 40) was “S”, the Drug sensibility profile (MRSA strain 41) was “S” and the Drug sensibility profile (MRSA strain 42) was “S”. For the same compound, the Drug sensibility profile (MRSA strain 43) was “S”, the Drug sensibility profile (MRSA strain 44) was “S” and the Drug sensibility profile (MRSA strain 45) was “S”. For the same compound, the Drug sensibility profile (MRSA strain 46) was “S”, the Drug sensibility profile (MRSA strain 48) was “S” and the Drug sensibility profile (MRSA strain 49) was “S”. The Drug sensibility profile (MRSA strain 50) was “S” and the Drug sensibility profile (MRSA strain 51) was “S”.

`C/C(=C\C(=O)OCCCCCCCCC(=O)O)C[C@@H]1OC[C@H](C[C@@H]2O[C@H]2[C@@H](C)[C@H](C)O)[C@@H](O)[C@H]1O` [Mupirocin] was tested, and the Drug sensibility profile (MRSA strain 1) was “S”, the Drug sensibility profile (MRSA strain 2) was “S” and the Drug sensibility profile (MRSA strain 3) was “S”. The Drug sensibility profile (MRSA strain 4) was “S”, the Drug sensibility profile (MRSA strain 5) was “S” and the Drug sensibility profile (MRSA strain 6) was “S”. For the same compound, the Drug sensibility profile (MRSA strain 7) was “S”, the Drug sensibility profile (MRSA strain 8) was “S” and the Drug sensibility profile (MRSA strain 9) was “S”. For the same compound, the Drug sensibility profile (MRSA strain 10) was “S”, the Drug sensibility profile (MRSA strain 12) was “S” and the Drug sensibility profile (MRSA strain 13) was “S”. For the same compound, the Drug sensibility profile (MRSA strain 14) was “S”, the Drug sensibility profile (MRSA strain 15) was “S” and the Drug sensibility profile (MRSA strain 16) was “S”. The Drug sensibility profile (MRSA strain 17) was “S”, the Drug sensibility profile (MRSA strain 18) was “S” and the Drug sensibility profile (MRSA strain 21) was “S”. For the same compound, the Drug sensibility profile (MRSA strain 23) was “S”, the Drug sensibility profile (MRSA strain 24) was “S” and the Drug sensibility profile (MRSA strain 25) was “S”. For the same compound, the Drug sensibility profile (MRSA strain 26) was “S”, the Drug sensibility profile (MRSA strain 27) was “S” and the Drug sensibility profile (MRSA strain 28) was “S”. The Drug sensibility profile (MRSA strain 29) was “S”, the Drug sensibility profile (MRSA strain 30) was “S” and the Drug sensibility profile (MRSA strain 31) was “S”. The Drug sensibility profile (MRSA strain 34) was “S”, the Drug sensibility profile (MRSA strain 35) was “S” and the Drug sensibility profile (MRSA strain 36) was “S”. The Drug sensibility profile (MRSA strain 40) was “S”, the Drug sensibility profile (MRSA strain 41) was “S” and the Drug sensibility profile (MRSA strain 42) was “S”. The Drug sensibility profile (MRSA strain 43) was “S”, the Drug sensibility profile (MRSA strain 44) was “S” and the Drug sensibility profile (MRSA strain 45) was “S”. The Drug sensibility profile (MRSA strain 46) was “S”, the Drug sensibility profile (MRSA strain 48) was “S” and the Drug sensibility profile (MRSA strain 49) was “S”. The Drug sensibility profile (MRSA strain 50) was “I” and the Drug sensibility profile (MRSA strain 51) was “S”.

In the case of `CN(C)c1cc(NC(=O)CNC(C)(C)C)c(O)c2c1C[C@H]1C[C@H]3[C@H](N(C)C)C(O)=C(C(N)=O)C(=O)[C@@]3(O)C(O)=C1C2=O` [Tigecycline], the Drug sensibility profile (MRSA strain 1) is reported as “S”, the Drug sensibility profile (MRSA strain 2) is reported as “R” and the Drug sensibility profile (MRSA strain 3) is reported as “S”. The Drug sensibility profile (MRSA strain 4) was “S”, the Drug sensibility profile (MRSA strain 5) was “S” and the Drug sensibility profile (MRSA strain 6) was “S”. For the same compound, the Drug sensibility profile (MRSA strain 7) was “S”, the Drug sensibility profile (MRSA strain 8) was “R” and the Drug sensibility profile (MRSA strain 9) was “R”. For the same compound, the Drug sensibility profile (MRSA strain 10) was “S”, the Drug sensibility profile (MRSA strain 12) was “R” and the Drug sensibility profile (MRSA strain 13) was “R”. For the same compound, the Drug sensibility profile (MRSA strain 14) was “S”, the Drug sensibility profile (MRSA strain 15) was “S” and the Drug sensibility profile (MRSA strain 16) was “S”. For the same compound, the Drug sensibility profile (MRSA strain 17) was “R”, the Drug sensibility profile (MRSA strain 18) was “S” and the Drug sensibility profile (MRSA strain 21) was “S”. For the same compound, the Drug sensibility profile (MRSA strain 23) was “S”, the Drug sensibility profile (MRSA strain 24) was “S” and the Drug sensibility profile (MRSA strain 25) was “S”. The Drug sensibility profile (MRSA strain 26) was “S”, the Drug sensibility profile (MRSA strain 27) was “S” and the Drug sensibility profile (MRSA strain 28) was “S”. For the same compound, the Drug sensibility profile (MRSA strain 29) was “S”, the Drug sensibility profile (MRSA strain 30) was “S” and the Drug sensibility profile (MRSA strain 31) was “S”. The Drug sensibility profile (MRSA strain 34) was “S”, the Drug sensibility profile (MRSA strain 35) was “S” and the Drug sensibility profile (MRSA strain 36) was “S”. For the same compound, the Drug sensibility profile (MRSA strain 40) was “S”, the Drug sensibility profile (MRSA strain 41) was “S” and the Drug sensibility profile (MRSA strain 42) was “S”. The Drug sensibility profile (MRSA strain 43) was “S”, the Drug sensibility profile (MRSA strain 44) was “S” and the Drug sensibility profile (MRSA strain 45) was “S”. The Drug sensibility profile (MRSA strain 46) was “S”, the Drug sensibility profile (MRSA strain 48) was “S” and the Drug sensibility profile (MRSA strain 49) was “S”. The Drug sensibility profile (MRSA strain 50) was “S” and the Drug sensibility profile (MRSA strain 51) was “S”.

`CCCCCCCCCC(=O)N[C@@H](Cc1c[nH]c2ccccc12)C(=O)N[C@H](CC(N)=O)C(=O)N[C@@H](CC(=O)O)C(=O)N[C@@H]1C(=O)NCC(=O)N[C@@H](CCCN)C(=O)N[C@@H](CC(=O)O)C(=O)N[C@H](C)C(=O)N[C@@H](CC(=O)O)C(=O)NCC(=O)N[C@H](CO)C(=O)N[C@@H]([C@H](C)CC(=O)O)C(=O)N[C@@H](CC(=O)c2ccccc2N)C(=O)O[C@@H]1C` [Daptomycine] was tested, and the Drug sensibility profile (MRSA strain 1) was “S”, the Drug sensibility profile (MRSA strain 2) was “S” and the Drug sensibility profile (MRSA strain 3) was “S”. The Drug sensibility profile (MRSA strain 4) was “S”, the Drug sensibility profile (MRSA strain 5) was “S” and the Drug sensibility profile (MRSA strain 6) was “S”. For the same compound, the Drug sensibility profile (MRSA strain 7) was “S”, the Drug sensibility profile (MRSA strain 8) was “S” and the Drug sensibility profile (MRSA strain 9) was “S”. For the same compound, the Drug sensibility profile (MRSA strain 10) was “S”, the Drug sensibility profile (MRSA strain 12) was “S” and the Drug sensibility profile (MRSA strain 13) was “S”. For the same compound, the Drug sensibility profile (MRSA strain 14) was “S”, the Drug sensibility profile (MRSA strain 15) was “S” and the Drug sensibility profile (MRSA strain 16) was “S”. For the same compound, the Drug sensibility profile (MRSA strain 17) was “S”, the Drug sensibility profile (MRSA strain 18) was “S” and the Drug sensibility profile (MRSA strain 21) was “S”. For the same compound, the Drug sensibility profile (MRSA strain 23) was “S”, the Drug sensibility profile (MRSA strain 24) was “S” and the Drug sensibility profile (MRSA strain 30) was “S”. For the same compound, the Drug sensibility profile (MRSA strain 31) was “S”, the Drug sensibility profile (MRSA strain 34) was “S” and the Drug sensibility profile (MRSA strain 35) was “S”. For the same compound, the Drug sensibility profile (MRSA strain 40) was “S”, the Drug sensibility profile (MRSA strain 43) was “S” and the Drug sensibility profile (MRSA strain 46) was “S”. For the same compound, the Drug sensibility profile (MRSA strain 48) was “S”, the Drug sensibility profile (MRSA strain 49) was “S” and the Drug sensibility profile (MRSA strain 50) was “S”.

In the case of `Cn1nnc(-c2ccc(-c3ccc(N4C[C@H](CO)OC4=O)cc3F)cn2)n1` [Tedizolid], the Drug sensibility profile (MRSA strain 6) is reported as “S”, the Drug sensibility profile (MRSA strain 7) is reported as “S” and the Drug sensibility profile (MRSA strain 8) is reported as “S”. For the same compound, the Drug sensibility profile (MRSA strain 9) was “S”, the Drug sensibility profile (MRSA strain 10) was “S” and the Drug sensibility profile (MRSA strain 12) was “S”. For the same compound, the Drug sensibility profile (MRSA strain 13) was “S”, the Drug sensibility profile (MRSA strain 14) was “S” and the Drug sensibility profile (MRSA strain 15) was “S”. The Drug sensibility profile (MRSA strain 16) was “S”, the Drug sensibility profile (MRSA strain 17) was “S” and the Drug sensibility profile (MRSA strain 18) was “S”. For the same compound, the Drug sensibility profile (MRSA strain 21) was “S”, the Drug sensibility profile (MRSA strain 23) was “S” and the Drug sensibility profile (MRSA strain 24) was “S”. For the same compound, the Drug sensibility profile (MRSA strain 25) was “S”, the Drug sensibility profile (MRSA strain 26) was “S” and the Drug sensibility profile (MRSA strain 27) was “S”. For the same compound, the Drug sensibility profile (MRSA strain 28) was “S”, the Drug sensibility profile (MRSA strain 29) was “S” and the Drug sensibility profile (MRSA strain 36) was “S”. For the same compound, the Drug sensibility profile (MRSA strain 41) was “S”, the Drug sensibility profile (MRSA strain 42) was “S” and the Drug sensibility profile (MRSA strain 44) was “S”. For the same compound, the Drug sensibility profile (MRSA strain 45) was “S” and the Drug sensibility profile (MRSA strain 51) was “S”.

For `CO/N=C(\C(=O)N[C@@H]1C(=O)N2C(C(=O)O)=C(COC(C)=O)CS[C@H]12)c1csc(N)n1` [CEF, cefotaxime], the Drug sensibility profile (MRSA strain 1) was “S”, the Drug sensibility profile (MRSA strain 2) was “S” and the Drug sensibility profile (MRSA strain 3) was “S”. For the same compound, the Drug sensibility profile (MRSA strain 4) was “S”, the Drug sensibility profile (MRSA strain 5) was “S” and the Drug sensibility profile (MRSA strain 6) was “R”. For the same compound, the Drug sensibility profile (MRSA strain 7) was “S”, the Drug sensibility profile (MRSA strain 8) was “R” and the Drug sensibility profile (MRSA strain 9) was “S”. For the same compound, the Drug sensibility profile (MRSA strain 10) was “S”, the Drug sensibility profile (MRSA strain 12) was “S” and the Drug sensibility profile (MRSA strain 13) was “R”. For the same compound, the Drug sensibility profile (MRSA strain 14) was “S”, the Drug sensibility profile (MRSA strain 15) was “S” and the Drug sensibility profile (MRSA strain 16) was “S”. For the same compound, the Drug sensibility profile (MRSA strain 17) was “S”, the Drug sensibility profile (MRSA strain 18) was “S” and the Drug sensibility profile (MRSA strain 21) was “R”. The Drug sensibility profile (MRSA strain 23) was “S”, the Drug sensibility profile (MRSA strain 24) was “S” and the Drug sensibility profile (MRSA strain 25) was “S”. For the same compound, the Drug sensibility profile (MRSA strain 26) was “S S S S S S S”, the Drug sensibility profile (MRSA strain 27) was “R” and the Drug sensibility profile (MRSA strain 28) was “S”. For the same compound, the Drug sensibility profile (MRSA strain 29) was “S”, the Drug sensibility profile (MRSA strain 30) was “S” and the Drug sensibility profile (MRSA strain 31) was “R”. The Drug sensibility profile (MRSA strain 34) was “R”, the Drug sensibility profile (MRSA strain 35) was “R” and the Drug sensibility profile (MRSA strain 36) was “S S S S S S S”. For the same compound, the Drug sensibility profile (MRSA strain 40) was “S”, the Drug sensibility profile (MRSA strain 41) was “R” and the Drug sensibility profile (MRSA strain 42) was “S”. The Drug sensibility profile (MRSA strain 43) was “S”, the Drug sensibility profile (MRSA strain 44) was “R” and the Drug sensibility profile (MRSA strain 45) was “S”. For the same compound, the Drug sensibility profile (MRSA strain 46) was “S”, the Drug sensibility profile (MRSA strain 48) was “R” and the Drug sensibility profile (MRSA strain 49) was “S”. For the same compound, the Drug sensibility profile (MRSA strain 50) was “R” and the Drug sensibility profile (MRSA strain 51) was “S”.
